Measurements taken from article PMC5218480 (PLoS ONE, 2017).

System: MV-4-11 cells
Experiment: Gene expression microarray analysis (Affymetrix PrimeView) and GSEA
Assay type: cell-based, human
Design: RFU PODN (11730768_x_at) / Fold change /veh PODN (11730768_x_at) / RFU LINC00158 (11744669_a_at) / Fold change /veh LINC00158 (11744669_a_at) / RFU DUSP10 (11751237_a_at) / Fold change /veh DUSP10 (11751237_a_at) / RFU ID3 (11757404_x_at) / Fold change /veh ID3 (11757404_x_at) / RFU PLEKHG5 (11737974_s_at) / Fold change /veh PLEKHG5 (11737974_s_at) / RFU LRRC4B (11730491_at) / Fold change /veh LRRC4B (11730491_at) / RFU GIMAP4 (11747438_a_at) / Fold change /veh GIMAP4 (11747438_a_at) / RFU KRT8 (11758183_x_at) / Fold change /veh KRT8 (11758183_x_at) / RFU CNN1 (11734310_a_at) / Fold change /veh CNN1 (11734310_a_at) / RFU VPS37D (11726825_at) / Fold change /veh VPS37D (11726825_at) / RFU C10orf10 (11716522_x_at) / Fold change /veh C10orf10 (11716522_x_at) / RFU KIR2DL2 /// KIR2DL4 /// KIR2DL5A /// KIR2DL5B /// KIR2DS1 /// KIR2DS2 /// KIR2DS3 /// KIR2DS4 /// KIR3DL3 /// KIR3DL3 /// KIR3DS1 (11738374_at) / Fold change /veh KIR2DL2 /// KIR2DL4 /// KIR2DL5A /// KIR2DL5B /// KIR2DS1 /// KIR2DS2 /// KIR2DS3 /// KIR2DS4 /// KIR3DL3 /// KIR3DL3 /// KIR3DS1 (11738374_at) / RFU C1QL1 (11718748_at) / Fold change /veh C1QL1 (11718748_at) / RFU TMPRSS4 (11747572_a_at) / Fold change /veh TMPRSS4 (11747572_a_at) / RFU HAMP (11756126_x_at) / Fold change /veh HAMP (11756126_x_at) / RFU RNFT2 (11725882_a_at) / Fold change /veh RNFT2 (11725882_a_at) / RFU NR4A2 (11747474_a_at) / Fold change /veh NR4A2 (11747474_a_at) / RFU ABCC12 (11746883_a_at) / Fold change /veh ABCC12 (11746883_a_at) / RFU TMEM136 (11760407_x_at) / Fold change /veh TMEM136 (11760407_x_at) / RFU CLDN22 /// WWC2 (11732394_at) / Fold change /veh CLDN22 /// WWC2 (11732394_at) / RFU HLA-DPB1 (11760878_x_at) / Fold change /veh HLA-DPB1 (11760878_x_at) / RFU SPINT1 (11716480_a_at) / Fold change /veh SPINT1 (11716480_a_at) / RFU GAP43 (11754022_s_at) / Fold change /veh GAP43 (11754022_s_at) / RFU A4GNT (11735810_at) / Fold change /veh A4GNT (11735810_at) / RFU PRB3 (11715151_x_at) / Fold change /veh PRB3 (11715151_x_at) / RFU TUBB4B (11761932_at) / Fold change /veh TUBB4B (11761932_at) / RFU CAPN14 (11732068_a_at) / Fold change /veh CAPN14 (11732068_a_at) / RFU TMCC2 (11721928_a_at) / Fold change /veh TMCC2 (11721928_a_at) / RFU IRGQ (11745062_a_at) / Fold change /veh IRGQ (11745062_a_at) / RFU FAM174B (11720279_a_at) / Fold change /veh FAM174B (11720279_a_at) / RFU TMPRSS4 (11748680_a_at) / Fold change /veh TMPRSS4 (11748680_a_at) / RFU FAM212B (11763350_a_at) / Fold change /veh FAM212B (11763350_a_at) / RFU PLEKHG5 (11743358_a_at) / Fold change /veh PLEKHG5 (11743358_a_at) / RFU ZSCAN30 (11745921_a_at) / Fold change /veh ZSCAN30 (11745921_a_at) / RFU CMKLR1 (11741424_a_at) / Fold change /veh CMKLR1 (11741424_a_at) / RFU LOC101060620 /// MAPK8IP1 (11723275_at) / Fold change /veh LOC101060620 /// MAPK8IP1 (11723275_at) / RFU SPTSSB (11747773_x_at) / Fold change /veh SPTSSB (11747773_x_at) / RFU PRSS12 (11739890_at) / Fold change /veh PRSS12 (11739890_at) / RFU BIN1 (11741810_x_at) / Fold change /veh BIN1 (11741810_x_at) / RFU WNT11 (11732464_a_at) / Fold change /veh WNT11 (11732464_a_at) / RFU C10orf10 (11716521_a_at) / Fold change /veh C10orf10 (11716521_a_at) / RFU C5orf56 (11738089_at) / Fold change /veh C5orf56 (11738089_at) / RFU CYB561 (11721691_x_at) / Fold change /veh CYB561 (11721691_x_at) / RFU ANKRD19P (11752326_a_at) / Fold change /veh ANKRD19P (11752326_a_at) / RFU OR2T12 /// OR2T33 /// OR2T8 (11738714_s_at) / Fold change /veh OR2T12 /// OR2T33 /// OR2T8 (11738714_s_at) / RFU VCAN (11748164_a_at) / Fold change /veh VCAN (11748164_a_at) / RFU JSRP1 (11732532_at) / Fold change /veh JSRP1 (11732532_at) / RFU KRTAP10-11 (11738290_x_at) / Fold change /veh KRTAP10-11 (11738290_x_at) / RFU MYO3A (11730013_a_at) / Fold change /veh MYO3A (11730013_a_at) / RFU EBF3 (11725865_a_at) / Fold change /veh EBF3 (11725865_a_at) / RFU CAMK2N1 (11719241_x_at) / Fold change /veh CAMK2N1 (11719241_x_at) / RFU C5orf56 (11738088_a_at) / Fold change /veh C5orf56 (11738088_a_at) / RFU OLFML3 (11715873_a_at) / Fold change /veh OLFML3 (11715873_a_at) / RFU LOC100653217 /// NTM (11731650_a_at) / Fold change /veh LOC100653217 /// NTM (11731650_a_at) / RFU MAPK11 (11762145_a_at) / Fold change /veh MAPK11 (11762145_a_at) / RFU FIZ1 (11724087_x_at) / Fold change /veh FIZ1 (11724087_x_at) / RFU OASL (11726364_x_at) / Fold change /veh OASL (11726364_x_at) / RFU SOX15 (11748057_x_at) / Fold change /veh SOX15 (11748057_x_at) / RFU CD79A (11719716_a_at) / Fold change /veh CD79A (11719716_a_at) / RFU HIST1H1D (11736915_at) / Fold change /veh HIST1H1D (11736915_at) / RFU CASKIN2 (11723855_a_at) / Fold change /veh CASKIN2 (11723855_a_at) / RFU LOC730098 (11760151_x_at) / Fold change /veh LOC730098 (11760151_x_at) / RFU OR4N2 (11742367_at) / Fold change /veh OR4N2 (11742367_at) / RFU PRRT2 (11749266_a_at) / Fold change /veh PRRT2 (11749266_a_at) / RFU SNX32 (11753110_a_at) / Fold change /veh SNX32 (11753110_a_at) / RFU CDHR5 (11726645_a_at) / Fold change /veh CDHR5 (11726645_a_at) / RFU RCAN1 (11760418_a_at) / Fold change /veh RCAN1 (11760418_a_at) / RFU FAM167A (11723789_a_at) / Fold change /veh FAM167A (11723789_a_at) / RFU FAM26E (11764081_at) / Fold change /veh FAM26E (11764081_at) / RFU ISYNA1 (11749810_s_at) / Fold change /veh ISYNA1 (11749810_s_at) / RFU ACY1 (11761880_at) / Fold change /veh ACY1 (11761880_at) / RFU 11764098_at / Fold change /veh 11764098_at / RFU SAMD14 (11745864_x_at) / Fold change /veh SAMD14 (11745864_x_at) / RFU NPB (11741838_a_at) / Fold change /veh NPB (11741838_a_at) / RFU TMPRSS6 (11731388_a_at) / Fold change /veh TMPRSS6 (11731388_a_at) / RFU KRTAP10-2 (11738614_at) / Fold change /veh KRTAP10-2 (11738614_at) / RFU ARHGAP8 /// PRR5-ARHGAP8 (11727945_x_at) / Fold change /veh ARHGAP8 /// PRR5-ARHGAP8 (11727945_x_at) / RFU KRTAP5-7 /// NADSYN1 (11734609_at) / Fold change /veh KRTAP5-7 /// NADSYN1 (11734609_at) / RFU RASL12 (11751679_a_at) / Fold change /veh RASL12 (11751679_a_at) / RFU CDKN2B (11736163_a_at) / Fold change /veh CDKN2B (11736163_a_at) / RFU PRF1 (11729649_at) / Fold change /veh PRF1 (11729649_at) / RFU, ZNF638 /// ZNF638-IT1 / Fold change vs veh, ZNF638 /// ZNF638-IT1 / RFU, PANK3 / Fold change vs veh, PANK3 / RFU, SH3YL1 / Fold change vs veh, SH3YL1 / RFU, ZEB2 / Fold change vs veh, ZEB2 / RFU, NRIP1 / Fold change vs veh, NRIP1 / RFU, PTTG1IP / Fold change vs veh, PTTG1IP / RFU, CAPN2 / Fold change vs veh, CAPN2 / RFU, MED14 / Fold change vs veh, MED14 / RFU, SNORA58 / Fold change vs veh, SNORA58 / RFU, C1orf63 / Fold change vs veh, C1orf63 / RFU, LRRFIP1 / Fold change vs veh, LRRFIP1 / RFU, NDUFAF7 / Fold change vs veh, NDUFAF7 / RFU, SLC12A2 / Fold change vs veh, SLC12A2 / RFU, IBTK / Fold change vs veh, IBTK / RFU, ESF1 / Fold change vs veh, ESF1 / Fold change vs veh, TMEM50B / RFU, TAOK1 / Fold change vs veh, TAOK1 / RFU, ACBD3 / Fold change vs veh, ACBD3 / RFU, TMA16 / Fold change vs veh, TMA16 / RFU, RWDD3 / Fold change vs veh, RWDD3 / RFU, BCAT1 / Fold change vs veh, BCAT1 / RFU, EDEM3 / Fold change vs veh, EDEM3 / RFU, TMEM33 / Fold change vs veh, TMEM33 / RFU, WDR75 / Fold change vs veh, WDR75 / RFU, AHCTF1 / Fold change vs veh, AHCTF1 / RFU, TFRC / Fold change vs veh, TFRC / RFU, ZDHHC17 / Fold change vs veh, ZDHHC17 / RFU, NOM1 / Fold change vs veh, NOM1 / RFU, ARL8B / Fold change vs veh, ARL8B / RFU, ZBTB11 / Fold change vs veh, ZBTB11 / RFU, TAMM41 / Fold change vs veh, TAMM41 / RFU, KIAA1704 /// LOC100996395 / Fold change vs veh, KIAA1704 /// LOC100996395 / RFU, ING1 / Fold change vs veh, ING1 / RFU, TRMT61B / Fold change vs veh, TRMT61B / RFU, FUBP3 / Fold change vs veh, FUBP3 / RFU, TP53 / Fold change vs veh, TP53 / RFU, TNKS2 / Fold change vs veh, TNKS2 / RFU, ZFP14 / Fold change vs veh, ZFP14 / RFU, ACTR2 / Fold change vs veh, ACTR2 / RFU, PPP3R1 / Fold change vs veh, PPP3R1 / RFU, PIK3R1 / Fold change vs veh, PIK3R1 / RFU, HNRNPA1 / Fold change vs veh, HNRNPA1 / RFU, RNF170 / Fold change vs veh, RNF170 / RFU, ZNF28 / Fold change vs veh, ZNF28 / RFU, RNGTT / Fold change vs veh, RNGTT / RFU, OGT / Fold change vs veh, OGT / RFU, BRD1 / Fold change vs veh, BRD1 / RFU, MARS / Fold change vs veh, MARS / RFU, ZNF655 / Fold change vs veh, ZNF655 / RFU, FAHD1 / Fold change vs veh, FAHD1 / RFU, BDP1 / Fold change vs veh, BDP1 / RFU, LRRCC1 / Fold change vs veh, LRRCC1 / RFU, ARID1A / Fold change vs veh, ARID1A / RFU, ZNF146 / Fold change vs veh, ZNF146 / RFU, ZNF330 / Fold change vs veh, ZNF330 / RFU, GPN3 / Fold change vs veh, GPN3 / RFU, C9orf123 / Fold change vs veh, C9orf123 / RFU, N4BP2L2 / Fold change vs veh, N4BP2L2 / RFU, ARFIP1 / Fold change vs veh, ARFIP1 / RFU, FAM179B / Fold change vs veh, FAM179B / RFU, BCL10 / Fold change vs veh, BCL10 / RFU, UHRF1BP1L / Fold change vs veh, UHRF1BP1L / RFU, BET1 / Fold change vs veh, BET1 / RFU, CNOT2 / Fold change vs veh, CNOT2 / RFU, ZNF268 / Fold change vs veh, ZNF268 / Fold change vs veh, ZNF507 / RFU, DGCR2 / Fold change vs veh, DGCR2 / RFU, WDSUB1 / Fold change vs veh, WDSUB1 / Fold change vs veh, HSP90B1 /// MIR3652 / RFU, ADSS / Fold change vs veh, ADSS / RFU, GK / Fold change vs veh, GK / RFU, ZNF148 / Fold change vs veh, ZNF148 / RFU, TAF9 / Fold change vs veh, TAF9 / RFU, SLC1A5 / Fold change vs veh, SLC1A5 / RFU, SLMO2 / Fold change vs veh, SLMO2 / RFU, ABCC4 / Fold change vs veh, ABCC4 / RFU, LOC101060439 /// RAP1B / Fold change vs veh, LOC101060439 /// RAP1B / RFU, RFX7 / Fold change vs veh, RFX7 / RFU, GTPBP10 / Fold change vs veh, GTPBP10 / RFU, CNEP1R1 / Fold change vs veh, CNEP1R1 / RFU, BIVM-ERCC5 /// ERCC5 / Fold change vs veh, BIVM-ERCC5 /// ERCC5 / RFU, ILF3 / Fold change vs veh, ILF3 / RFU 11762660_at / Fold change /veh 11762660_at / RFU VCAN (11757783_s_at) / Fold change /veh VCAN (11757783_s_at) / RFU DDX43 (11728927_at) / Fold change /veh DDX43 (11728927_at) / RFU KRT8 (11758188_x_at) / Fold change /veh KRT8 (11758188_x_at) / RFU NKD1 (11759106_at) / Fold change /veh NKD1 (11759106_at) / RFU SRD5A1 (11742802_a_at) / Fold change /veh SRD5A1 (11742802_a_at) / RFU TPSAB1 /// TPSB2 (11721975_s_at) / Fold change /veh TPSAB1 /// TPSB2 (11721975_s_at) / RFU GSTM3 (11746129_a_at) / Fold change /veh GSTM3 (11746129_a_at) / RFU IL23R (11737362_x_at) / Fold change /veh IL23R (11737362_x_at) / RFU TMEM51 (11727254_a_at) / Fold change /veh TMEM51 (11727254_a_at) / RFU PIWIL2 (11732686_x_at) / Fold change /veh PIWIL2 (11732686_x_at) / RFU ORM1 (11744905_x_at) / Fold change /veh ORM1 (11744905_x_at) / RFU CCDC152 (11743942_at) / Fold change /veh CCDC152 (11743942_at) / RFU ECM1 (11717891_a_at) / Fold change /veh ECM1 (11717891_a_at) / RFU IL23R (11748794_a_at) / Fold change /veh IL23R (11748794_a_at) / RFU TNFAIP8L3 (11732012_x_at) / Fold change /veh TNFAIP8L3 (11732012_x_at) / RFU MBOAT4 (11741988_at) / Fold change /veh MBOAT4 (11741988_at) / RFU 11764193_at / Fold change /veh 11764193_at / RFU TMEM53 (11763286_at) / Fold change /veh TMEM53 (11763286_at) / RFU MAGEB2 (11727129_at) / Fold change /veh MAGEB2 (11727129_at) / RFU TMEM200A (11744735_a_at) / Fold change /veh TMEM200A (11744735_a_at) / RFU CCDC152 (11751479_a_at) / Fold change /veh CCDC152 (11751479_a_at) / RFU FAM211A (11726209_a_at) / Fold change /veh FAM211A (11726209_a_at) / RFU RGS16 (11746705_a_at) / Fold change /veh RGS16 (11746705_a_at) / RFU VCAN (11755009_s_at) / Fold change /veh VCAN (11755009_s_at) / RFU RHOB (11743442_s_at) / Fold change /veh RHOB (11743442_s_at) / RFU RGS16 (11720943_a_at) / Fold change /veh RGS16 (11720943_a_at) / RFU RGS16 (11720944_at) / Fold change /veh RGS16 (11720944_at) / RFU, VPS4B / Fold change vs veh, VPS4B / RFU, CREB1 / Fold change vs veh, CREB1 / RFU, DNAJC13 / Fold change vs veh, DNAJC13 / RFU, GNAQ / Fold change vs veh, GNAQ / RFU, CDK5R1 / Fold change vs veh, CDK5R1 / RFU, ZRANB3 / Fold change vs veh, ZRANB3 / RFU, CUL4A / Fold change vs veh, CUL4A / RFU, CCNY / Fold change vs veh, CCNY / RFU, UFL1 / Fold change vs veh, UFL1 / RFU, COG3 / Fold change vs veh, COG3 / RFU, DIAPH2 / Fold change vs veh, DIAPH2 / RFU, SKA2 / Fold change vs veh, SKA2 / RFU, AFF3 / Fold change vs veh, AFF3 / RFU, LMF1 / Fold change vs veh, LMF1 / RFU, IPO11 / Fold change vs veh, IPO11 / RFU, DFFB / Fold change vs veh, DFFB / RFU, FOXP1 / Fold change vs veh, FOXP1 / RFU, CARD8 / Fold change vs veh, CARD8 / RFU, STRN3 / Fold change vs veh, STRN3 / RFU, ADK / Fold change vs veh, ADK / RFU, RASSF2 / Fold change vs veh, RASSF2 / RFU, WIPF1 / Fold change vs veh, WIPF1 / RFU, LARP1B / Fold change vs veh, LARP1B / RFU, RASA1 / Fold change vs veh, RASA1 / RFU, RB1 / Fold change vs veh, RB1 / RFU, PPFIA1 / Fold change vs veh, PPFIA1 / RFU, MAT2A / Fold change vs veh, MAT2A / RFU, CCT5 / Fold change vs veh, CCT5 / RFU, WDR92 / Fold change vs veh, WDR92 / RFU, CUX1 / Fold change vs veh, CUX1 / RFU, TTC7A / Fold change vs veh, TTC7A / RFU, TMEM135 / Fold change vs veh, TMEM135 / RFU, DEPTOR / Fold change vs veh, DEPTOR / RFU, CPM / Fold change vs veh, CPM / RFU, DNAJB6 / Fold change vs veh, DNAJB6 / RFU, CACNA2D3 / Fold change vs veh, CACNA2D3 / RFU, DTX4 / Fold change vs veh, DTX4 / RFU, TFCP2 / Fold change vs veh, TFCP2 / RFU, GMCL1 /// GMCL1P1 / Fold change vs veh, GMCL1 /// GMCL1P1 / RFU, AEBP2 / Fold change vs veh, AEBP2 / RFU, SNHG1 /// SNORD22 /// SNORD25 /// SNORD26 /// SNORD27 /// SNORD28 /// SNORD29 /// SNORD31 / Fold change vs veh, SNHG1 /// SNORD22 /// SNORD25 /// SNORD26 /// SNORD27 /// SNORD28 /// SNORD29 /// SNORD31 / Fold change (Aza/veh), C12orf56 (ProbeSet 11735607_a_at) / Fold change (ACY-1035/veh), C12orf56 (ProbeSet 11735607_a_at) / Fold change (Aza/veh), FGFR1OP (ProbeSet 11751329_s_at) / Fold change (ACY-1035/veh), FGFR1OP (ProbeSet 11751329_s_at) / Fold change (Aza/veh), VPS36 (ProbeSet 11739960_a_at) / Fold change (ACY-1035/veh), VPS36 (ProbeSet 11739960_a_at) / RFU SYPL1 (11715823_x_at) / Fold change /veh SYPL1 (11715823_x_at) / RFU IGFBP7 (11715501_s_at) / Fold change /veh IGFBP7 (11715501_s_at) / RFU REEP3 (11722064_at) / Fold change /veh REEP3 (11722064_at) / RFU IGLL1 (11728026_x_at) / Fold change /veh IGLL1 (11728026_x_at): dose or concentration left out as unconfirmed
Details: ProbeSet 11741199_a_at; LIST B

Structure (SMILES): Nc1ncn([C@@H]2O[C@H](CO)[C@@H](O)[C@H]2O)c(=O)n1 [azacitidine]
- Fold change vs veh, LRRCC1: 0.97
